How the values were obtained:
Assay type in all cases: cell-based
M1 muscarinic receptor = target: T1, M1 muscarinic receptor (Homo sapiens, UniProt P11229); experiment: Functional mobilization of intracellular calcium (FLIPR), M1-CHO cells; details: for Emax: 100% efficacy = maximum response obtained with the Carbachol control; for M1 Activity: M1-CHO cells, calcium mobilization (FLIPR)
T1 construct: expressed in transfected cells; host or cells: CHO (M1-CHO)
T1 sequence (P11229 1-460): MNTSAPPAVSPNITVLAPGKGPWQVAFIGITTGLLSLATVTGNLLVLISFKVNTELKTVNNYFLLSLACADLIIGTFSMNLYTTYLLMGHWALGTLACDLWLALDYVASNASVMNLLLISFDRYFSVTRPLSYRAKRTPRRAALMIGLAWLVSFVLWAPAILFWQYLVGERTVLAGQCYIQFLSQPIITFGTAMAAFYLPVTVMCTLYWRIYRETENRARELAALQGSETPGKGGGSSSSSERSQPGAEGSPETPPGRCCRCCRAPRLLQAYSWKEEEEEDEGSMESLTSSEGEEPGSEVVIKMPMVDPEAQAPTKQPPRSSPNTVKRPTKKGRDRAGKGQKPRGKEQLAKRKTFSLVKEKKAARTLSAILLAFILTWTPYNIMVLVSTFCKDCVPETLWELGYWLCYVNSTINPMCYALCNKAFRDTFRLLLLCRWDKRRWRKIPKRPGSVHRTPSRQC
Procedure, shortened: (§1)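 FLIPR fluorescence (ex 488, em 540 nm) recorded 60 sec after compound addition to dye-loaded CHO cells. Agonist mode: compound alone. Antagonist mode: 15 min compound pre-incubation, then carbachol at EC80, or co-application. Efficacy expressed as % of maximal carbachol response.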

M2 muscarinic receptor = target: T2, M2 muscarinic receptor (Homo sapiens, UniProt P08172); experiment: Functional mobilization of intracellular calcium (FLIPR), M2-CHO cells; details: for Emax: 100% efficacy = maximum response obtained with the Carbachol control; for M2 Activity: M2-CHO cells, calcium mobilization (FLIPR)
T2 construct: expressed in transfected cells; host or cells: CHO (M2-CHO)
T2 sequence (P08172 1-466): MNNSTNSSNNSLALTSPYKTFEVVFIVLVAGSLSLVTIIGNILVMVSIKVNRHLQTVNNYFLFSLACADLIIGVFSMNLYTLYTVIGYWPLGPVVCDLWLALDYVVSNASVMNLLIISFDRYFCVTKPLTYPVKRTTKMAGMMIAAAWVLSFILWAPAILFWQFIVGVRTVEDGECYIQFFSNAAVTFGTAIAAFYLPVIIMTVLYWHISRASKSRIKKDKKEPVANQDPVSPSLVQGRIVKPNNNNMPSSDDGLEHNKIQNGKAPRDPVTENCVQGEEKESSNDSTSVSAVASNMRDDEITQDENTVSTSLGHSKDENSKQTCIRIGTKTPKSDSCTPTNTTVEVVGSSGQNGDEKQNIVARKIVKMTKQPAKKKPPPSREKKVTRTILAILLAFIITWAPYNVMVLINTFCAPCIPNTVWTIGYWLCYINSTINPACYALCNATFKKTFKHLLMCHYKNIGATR
Procedure, shortened: as §1

M3 muscarinic receptor = target: T3, M3 muscarinic receptor (Homo sapiens, UniProt P20309); experiment: Functional mobilization of intracellular calcium (FLIPR), M3-CHO cells; details: for Emax: 100% efficacy = maximum response obtained with the Carbachol control; for M3 Activity: M3-CHO cells, calcium mobilization (FLIPR)
T3 construct: expressed in transfected cells; host or cells: CHO (M3-CHO)
Procedure, shortened: as §1

M4 muscarinic receptor = target: T4, M4 muscarinic receptor (Homo sapiens, UniProt P08173); experiment: Functional mobilization of intracellular calcium (FLIPR), M4-CHO cells; details: for Emax: 100% efficacy = maximum response obtained with the Carbachol control; for M4 Activity: M4-CHO cells, calcium mobilization (FLIPR)
T4 construct: expressed in transfected cells; host or cells: CHO (M4-CHO)
T4 sequence (P08173 1-479): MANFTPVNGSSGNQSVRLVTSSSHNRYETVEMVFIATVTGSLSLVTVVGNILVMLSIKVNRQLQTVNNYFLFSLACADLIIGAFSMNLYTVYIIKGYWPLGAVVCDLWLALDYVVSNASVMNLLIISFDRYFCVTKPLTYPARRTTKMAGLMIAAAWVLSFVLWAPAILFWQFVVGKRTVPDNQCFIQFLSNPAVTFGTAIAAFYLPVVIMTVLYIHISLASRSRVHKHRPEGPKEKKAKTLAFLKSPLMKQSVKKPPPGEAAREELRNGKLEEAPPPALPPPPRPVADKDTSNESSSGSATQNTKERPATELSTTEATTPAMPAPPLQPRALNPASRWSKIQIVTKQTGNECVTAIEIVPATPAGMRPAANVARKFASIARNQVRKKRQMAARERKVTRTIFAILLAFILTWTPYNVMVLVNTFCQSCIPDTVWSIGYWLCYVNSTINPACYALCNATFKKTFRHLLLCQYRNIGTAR
Procedure, shortened: as §1

T3 sequence (P20309 whole entry): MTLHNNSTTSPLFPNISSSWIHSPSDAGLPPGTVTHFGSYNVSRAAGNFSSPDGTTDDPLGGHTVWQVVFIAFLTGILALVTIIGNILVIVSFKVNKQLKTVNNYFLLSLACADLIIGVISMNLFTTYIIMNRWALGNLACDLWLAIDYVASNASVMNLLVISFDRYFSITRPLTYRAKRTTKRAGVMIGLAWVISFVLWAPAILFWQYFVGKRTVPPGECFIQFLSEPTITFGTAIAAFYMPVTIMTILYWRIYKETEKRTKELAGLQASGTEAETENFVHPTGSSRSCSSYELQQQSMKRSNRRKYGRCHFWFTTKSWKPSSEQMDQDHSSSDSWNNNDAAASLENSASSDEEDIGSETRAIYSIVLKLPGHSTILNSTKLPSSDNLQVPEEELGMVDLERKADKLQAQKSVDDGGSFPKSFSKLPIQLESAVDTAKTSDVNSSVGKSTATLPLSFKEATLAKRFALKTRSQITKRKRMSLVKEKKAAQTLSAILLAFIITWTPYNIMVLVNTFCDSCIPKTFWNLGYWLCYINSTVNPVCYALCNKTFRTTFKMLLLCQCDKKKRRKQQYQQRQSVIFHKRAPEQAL

COc1ccc(-c2ccoc2)cc1C1CCN([C@@H]2C[C@H]3CC[C@H]2C3)CC1 [Compound 237]
Emax (M1 muscarinic receptor): < 25% | M1 Activity (M1 muscarinic receptor): + (activity was measured to be greater than 5.0 μM) | Emax (M2 muscarinic receptor): < 25% | M2 Activity (M2 muscarinic receptor): + (activity was measured to be greater than 5.0 μM) | Emax (M3 muscarinic receptor): < 25% | M3 Activity (M3 muscarinic receptor): + (activity was measured to be greater than 5.0 μM) | Emax (M4 muscarinic receptor): 25 to 100% | M4 Activity (M4 muscarinic receptor): ++ (activity was measured to be from 1.0 μM to 5.0 μM)

COC(=O)CC1CCCC(N2CCC(c3ccccc3OC)CC2)C1 (centres unmarked) [Compound 238]
Emax (M1 muscarinic receptor): 25 to 100% | M1 Activity (M1 muscarinic receptor): + (activity was measured to be greater than 5.0 μM) | Emax (M2 muscarinic receptor): < 25% | M2 Activity (M2 muscarinic receptor): + (activity was measured to be greater than 5.0 μM) | Emax (M3 muscarinic receptor): < 25% | M3 Activity (M3 muscarinic receptor): + (activity was measured to be greater than 5.0 μM) | Emax (M4 muscarinic receptor): 25 to 100% | M4 Activity (M4 muscarinic receptor): +++ (activity was measured to be less than 1.0 μM)

COc1ccc(F)cc1C1(F)CCN(CC2CCOCC2)CC1 [Compound 239]
Emax (M1 muscarinic receptor): 25 to 100% | M1 Activity (M1 muscarinic receptor): + (activity was measured to be greater than 5.0 μM) | Emax (M2 muscarinic receptor): < 25% | M2 Activity (M2 muscarinic receptor): + (activity was measured to be greater than 5.0 μM) | Emax (M3 muscarinic receptor): < 25% | M3 Activity (M3 muscarinic receptor): + (activity was measured to be greater than 5.0 μM) | Emax (M4 muscarinic receptor): 25 to 100% | M4 Activity (M4 muscarinic receptor): ++ (activity was measured to be from 1.0 μM to 5.0 μM)

COc1ccc(-c2ccccc2C2CCN([C@H]3C[C@H]4CC[C@H]3C4)CC2)cc1 [Compound 241]
Emax (M1 muscarinic receptor): 25 to 100% | M1 Activity (M1 muscarinic receptor): + (activity was measured to be greater than 5.0 μM) | Emax (M2 muscarinic receptor): < 25% | M2 Activity (M2 muscarinic receptor): + (activity was measured to be greater than 5.0 μM) | Emax (M3 muscarinic receptor): < 25% | M3 Activity (M3 muscarinic receptor): + (activity was measured to be greater than 5.0 μM) | Emax (M4 muscarinic receptor): 25 to 100% | M4 Activity (M4 muscarinic receptor): ++ (activity was measured to be from 1.0 μM to 5.0 μM)

COc1ccc(F)cc1C1(F)CCN(C2CCC3CCC2C3)CC1 (centres unmarked) [Compound 242]
Emax (M1 muscarinic receptor): 25 to 100% | M1 Activity (M1 muscarinic receptor): ++ (activity was measured to be from 1.0 μM to 5.0 μM) | Emax (M2 muscarinic receptor): 25 to 100% | M2 Activity (M2 muscarinic receptor): + (activity was measured to be greater than 5.0 μM) | Emax (M3 muscarinic receptor): < 25% | M3 Activity (M3 muscarinic receptor): + (activity was measured to be greater than 5.0 μM) | Emax (M4 muscarinic receptor): 25 to 100% | M4 Activity (M4 muscarinic receptor): +++ (activity was measured to be less than 1.0 μM)

CCOC(=O)N1CCC(CN2CCC(c3cc(-c4ccc(C(=O)NC)cc4)ccc3OC)CC2)CC1 [Compound 243]
Emax (M1 muscarinic receptor): 25 to 100% | M1 Activity (M1 muscarinic receptor): +++ (activity was measured to be less than 1.0 μM) | Emax (M2 muscarinic receptor): < 25% | M2 Activity (M2 muscarinic receptor): + (activity was measured to be greater than 5.0 μM) | Emax (M3 muscarinic receptor): < 25% | M3 Activity (M3 muscarinic receptor): + (activity was measured to be greater than 5.0 μM) | Emax (M4 muscarinic receptor): 25 to 100% | M4 Activity (M4 muscarinic receptor): +++ (activity was measured to be less than 1.0 μM)

COc1ccc(C)cc1C1CCN(C2C[C@H]3CC[C@H](C2)C3)CC1 (some centres unmarked) [Compound 246]
Emax (M1 muscarinic receptor): 25 to 100% | M1 Activity (M1 muscarinic receptor): ++ (activity was measured to be from 1.0 μM to 5.0 μM) | Emax (M2 muscarinic receptor): 25 to 100% | M2 Activity (M2 muscarinic receptor): + (activity was measured to be greater than 5.0 μM) | Emax (M3 muscarinic receptor): < 25% | M3 Activity (M3 muscarinic receptor): + (activity was measured to be greater than 5.0 μM) | Emax (M4 muscarinic receptor): 25 to 100% | M4 Activity (M4 muscarinic receptor): +++ (activity was measured to be less than 1.0 μM)

COc1ccc(F)cc1C1(OC)CCN(C2CC3CCC(C3)C2)CC1 (centres unmarked) [Compound 247]
Emax (M1 muscarinic receptor): < 25% | M1 Activity (M1 muscarinic receptor): + (activity was measured to be greater than 5.0 μM) | Emax (M2 muscarinic receptor): < 25% | M2 Activity (M2 muscarinic receptor): + (activity was measured to be greater than 5.0 μM) | Emax (M3 muscarinic receptor): < 25% | M3 Activity (M3 muscarinic receptor): + (activity was measured to be greater than 5.0 μM) | Emax (M4 muscarinic receptor): 25 to 100% | M4 Activity (M4 muscarinic receptor): +++ (activity was measured to be less than 1.0 μM)

COc1ccc(Cl)cc1C1CCN(C2CC[S+]([O-])CC2)CC1 (centres unmarked) [Compound 248]
Emax (M1 muscarinic receptor): < 25% | M1 Activity (M1 muscarinic receptor): + (activity was measured to be greater than 5.0 μM) | Emax (M2 muscarinic receptor): < 25% | M2 Activity (M2 muscarinic receptor): + (activity was measured to be greater than 5.0 μM) | Emax (M3 muscarinic receptor): < 25% | M3 Activity (M3 muscarinic receptor): + (activity was measured to be greater than 5.0 μM) | Emax (M4 muscarinic receptor): 25 to 100% | M4 Activity (M4 muscarinic receptor): + (activity was measured to be greater than 5.0 μM)

COc1ccc(Cl)cc1C1CCN(C2CCOCC2)CC1 [Compound 249]
Emax (M1 muscarinic receptor): 25 to 100% | M1 Activity (M1 muscarinic receptor): + (activity was measured to be greater than 5.0 μM) | Emax (M2 muscarinic receptor): 25 to 100% | M2 Activity (M2 muscarinic receptor): + (activity was measured to be greater than 5.0 μM) | Emax (M3 muscarinic receptor): < 25% | M3 Activity (M3 muscarinic receptor): + (activity was measured to be greater than 5.0 μM) | Emax (M4 muscarinic receptor): 25 to 100% | M4 Activity (M4 muscarinic receptor): +++ (activity was measured to be less than 1.0 μM)

COc1ccc(C#N)cc1C1CCN([C@H]2C[C@H]3CC[C@H]2C3)CC1 [Compound 250]
Emax (M1 muscarinic receptor): 25 to 100% | M1 Activity (M1 muscarinic receptor): ++ (activity was measured to be from 1.0 μM to 5.0 μM) | Emax (M2 muscarinic receptor): < 25% | M2 Activity (M2 muscarinic receptor): + (activity was measured to be greater than 5.0 μM) | Emax (M3 muscarinic receptor): < 25% | M3 Activity (M3 muscarinic receptor): + (activity was measured to be greater than 5.0 μM) | Emax (M4 muscarinic receptor): 25 to 100% | M4 Activity (M4 muscarinic receptor): +++ (activity was measured to be less than 1.0 μM)

COC(=O)c1ccc(-c2ccccc2C2CCN([C@H]3C[C@H]4CC[C@H]3C4)CC2)cc1 [Compound 251]
Emax (M1 muscarinic receptor): 25 to 100% | M1 Activity (M1 muscarinic receptor): + (activity was measured to be greater than 5.0 μM) | Emax (M2 muscarinic receptor): 25 to 100% | M2 Activity (M2 muscarinic receptor): + (activity was measured to be greater than 5.0 μM) | Emax (M3 muscarinic receptor): < 25% | M3 Activity (M3 muscarinic receptor): + (activity was measured to be greater than 5.0 μM) | Emax (M4 muscarinic receptor): 25 to 100% | M4 Activity (M4 muscarinic receptor): +++ (activity was measured to be less than 1.0 μM)

Cc1ccccc1C1(O)CCN(C2CC3CCC2C3)CC1 (centres unmarked) [Compound 252]
Emax (M1 muscarinic receptor): < 25% | M1 Activity (M1 muscarinic receptor): + (activity was measured to be greater than 5.0 μM) | Emax (M2 muscarinic receptor): < 25% | M2 Activity (M2 muscarinic receptor): + (activity was measured to be greater than 5.0 μM) | M3 Activity (M3 muscarinic receptor): + (activity was measured to be greater than 5.0 μM) | Emax (M4 muscarinic receptor): < 25% | M4 Activity (M4 muscarinic receptor): + (activity was measured to be greater than 5.0 μM)

CCOC(=O)N1CCC(CN2CCC(F)(c3cc(F)ccc3OC)CC2)CC1 [Compound 253]
Emax (M1 muscarinic receptor): 25 to 100% | M1 Activity (M1 muscarinic receptor): +++ (activity was measured to be less than 1.0 μM) | Emax (M2 muscarinic receptor): < 25% | M2 Activity (M2 muscarinic receptor): ++ (activity was measured to be from 1.0 μM to 5.0 μM) | Emax (M3 muscarinic receptor): < 25% | M3 Activity (M3 muscarinic receptor): + (activity was measured to be greater than 5.0 μM) | Emax (M4 muscarinic receptor): 25 to 100% | M4 Activity (M4 muscarinic receptor): +++ (activity was measured to be less than 1.0 μM)

CCOC(=O)N1C2CCC1CC(N1CCC(c3cc(-c4ccc(CC#N)cc4)ccc3OC)CC1)C2 (centres unmarked) [Compound 254]
Emax (M1 muscarinic receptor): 25 to 100% | M1 Activity (M1 muscarinic receptor): + (activity was measured to be greater than 5.0 μM) | Emax (M2 muscarinic receptor): < 25% | M2 Activity (M2 muscarinic receptor): + (activity was measured to be greater than 5.0 μM) | Emax (M3 muscarinic receptor): < 25% | M3 Activity (M3 muscarinic receptor): + (activity was measured to be greater than 5.0 μM) | Emax (M4 muscarinic receptor): 25 to 100% | M4 Activity (M4 muscarinic receptor): ++ (activity was measured to be from 1.0 μM to 5.0 μM)
